Reference: US6566096B2, “Mammalian EDG-7 receptor homologs” (NPS Allelix Corp., priority 1997, dated 2003)
“And” between values parts separate entries of the source, which are not always exact repeats. Equal entries are not always repeated.

Biological target: T1, HEDG-7 receptor (Homo sapiens, UniProt O95977, A140V/I378S)
T1 construct: it was desirable to isolate a full-length cDNA clone from a human source; expressed in transfected cells; host or cells: 293-EBNA cells (Invitrogen, Cat. R620-07), transiently transfected with pc3-hedg7#M10 (pcDNA3.1) and a 2x SRE-luciferase reporter
T1 sequence (O95977 1-384 A140V/I378S): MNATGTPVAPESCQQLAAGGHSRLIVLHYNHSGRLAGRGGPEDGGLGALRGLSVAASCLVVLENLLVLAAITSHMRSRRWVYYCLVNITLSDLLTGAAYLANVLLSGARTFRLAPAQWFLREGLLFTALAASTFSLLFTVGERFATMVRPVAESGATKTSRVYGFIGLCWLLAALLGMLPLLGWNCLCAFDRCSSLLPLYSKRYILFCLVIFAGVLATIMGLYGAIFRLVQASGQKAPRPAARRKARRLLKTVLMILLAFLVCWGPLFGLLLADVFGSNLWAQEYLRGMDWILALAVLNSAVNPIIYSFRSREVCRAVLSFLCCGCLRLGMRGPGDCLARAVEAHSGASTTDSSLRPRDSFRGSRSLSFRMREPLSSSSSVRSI
Assay: SRE-luciferase reporter gene response in 293-EBNA cells transfected with pc3-hedg7#M10
Format: cell-based
Conditions: for Max. Fold: maximal luciferase fold response after subtracting endogenous response in pcDNA3-transfected cells; for Max. Fold / EMax (Percent) / HEDG7 activation (conclusion from dose response): 6 hr treatment; for EMax (Percent): relative efficacy; for EMax (Percent) / HEDG7 activation (conclusion from dose response) / SRE response (agonist specificity) / Rank (EMax): 293-EBNA cells transfected with pc3-hedg7#M10; for HEDG-7 agonist activity: summary statement in the description; for HEDG7 activation (conclusion from dose response): various concentrations; for SRE response (agonist specificity): 5 μM compound, serum-free medium; for Rank (EMax): rank of efficacy among sphingolipids tested
Experimental: Miniprep DNA from 4 clones was tested by cotransfection into 293-EBNA cells (Invitrogen, Cat. R620-07) with a 2× SRE-Luciferase reporter gene constructed in-house. We previously determined that these cells are an ideal expression host for edg receptors that respond to sphingolipids, since only a single edg gene is expressed (the LPA receptor subtype […], see U.S. Ser. No. 08/997,803), under normal culture conditions. […] Thus, the low endogenous expression of previously identified S1P receptor subtypes (edg-1, edg-3, edg-4/H218) and hedg7 (determined here) permits overexpression and functional analysis of these receptors in a relatively unresponsive cell background. From this preliminary cotransfection experiment, the expression clone pC3-hEdg7#M10 was chosen for further analysis. The nucleotide sequence and amino acid sequence of the hedg-7 sequence from the pC3-hEdg7#M10 clone are shown in FIG. 1B and FIG. 2B, respectively. Furthermore, an alignment of the hedg-7 amino acid sequence from the pC3-hEdg7#M10 clone and from the genomic DNA sequence is shown in FIG. 3B.
Transient transfection protocol for 293-EBNA:
1) 100 mm plates of 293-EBNA with a confluency of −80% were used for transfection.
2) SRE Reporter Gene Cotransfection: Expression plasmid ([…]) and reporter plasmid (2× SREtk-p4Luc-zeo; 0.5 μg) DNA samples were combined and diluted in 750 μl of DMEM/F12 (serum-free media) and 20 μl Plus Reagent (Lipofectamine Plus Kit, Life Technologies Cat. 10964-013), and incubated at room temperature for 15 min.
3) 30 μl Lipofectamine Reagent (Lipofectamine Plus Kit) was diluted in 750 μl DMEM/F12. The diluted Lipofectamine was then combined with the DNA/Plus mixture and incubated at RT for 15 min.
4) The 293-EBNA plates were washed once with PBS, and 5 ml DMEM/F12 was added to each plate.
5) DNA/Plus/Lipofectamine mixture was added to each plate of 293-EBNA cells. The plates were left for 3 hr at 37° C. in a 5% CO2 incubator.
6) The transfection medium was replaced with DMEM/F12 containing 10% FBS to recover overnight.
2) Transfected cells were harvested by trypsinization and 20,000 cells per well were plated in 96-well Blackview plates coated with poly D-lysine (Becton Dickinson Labware, Cat. 40640). Medium was DMEM/F12 plus 0.15% FBS. No. cells were plated in the outside wells of the 96-well plate. Cells were returned to the incubator for 48 hr.
1) Media was removed and cells treated with compounds diluted in serum-free DMEM/F12 media and the following treatments: a) Untreated: Serum-free DMEM/F12; b) 10 μM S1P in DMEM/F12 medium.
2) The cells were treated 5 hr in the 37° C. incubator.
3) Luclite kit (Packard; Cat. 6016911) was used for luciferase assay. All reagents were brought to room temperature before use.
4) Media was removed from each well. 50 μl 0.5M HEPES pH 7.8, 1 mM MgCl2, 1 mM CaCl2 was added to all wells of 96-well plate.
5) Luclite substrate was made up and 50 μl substrate was added to each well as specified in the kit.
6) Plates were incubated at room temperature for 30 min.
7) After incubation, plates were counted in a 12-detector Packard Top Count on a program without dark delay.
To determine the agonist specificity of HEDG-7, 293-EBNA cells were transfected with pc3-hedg7#M10, serum-deprived as described above, and treated in serum-free medium with 5 μM concentrations of SPC, S1P, LPA, lysophosphatiylcholine (LPC), edelfosine, psychosine, anandamide or 2-arachidonylglycerol. Control cells were treated with serum-free medium alone, and the SRE response was expressed as fold induction relative to this control. After 5 hr of treatment, luciferase activity was measured.
Transfection of a HEDG7 expression vector pc3-hedg7#M10 was carried out using Lipofectamine Plus (Life Technologies, Cat. 10964-013) according to manufacturer's instructions. The next day, transfected cells were harvested by trypsinization and replated at 30,000 cells per well in poly-(D)lysine-coated 96-well plates in medium containing 0.15% FBS. […]

Compound	Max. Fold [Fold]	EMax (Percent) [%]	HEDG-7 agonist activity	HEDG7 activation (conclusion from dose response)	SRE response (agonist specificity) (5 hr)	SRE-Luciferase reporter response (10 μM S1P treatment, 5 hr, EBNA-293 cells transfected with pc3-hedg7#M10 and 2× SRE-Luciferase reporter, 2 independent experiments)	Rank (EMax)
CCCCCCCCCCCCC/C=C/[C@@H](O)C(N)CO[C@@H]1O[C@H](CO)[C@@H](O)[C@H](O)[C@@H]1O (stereo partly drawn) [Glucospychosine, glucopsychosine]	1.00	0	do not act as HEDG-7 agonists	failed to activate HEDG7 at nontoxic concentrations	–	–	–
CCCCCCCCCCCCC/C=C/[C@@H](O)[C@@H](N)CO[C@@H]1O[C@H](CO)[C@H](O)[C@H](O)[C@H]1O [Psychosine, psychosine]	1.00	0	do not act as HEDG-7 agonists	failed to activate HEDG7 at nontoxic concentrations	–	–	–
CCCCCCCCCCCCC/C=C/[C@@H](O)[C@@H](N)COP(=O)(O)O [S1P]	3.59	100	agonists for HEDG-7	full agonists	robustly induced expression of the SRE reporter gene	5.3 fold and 6.5 fold	1
CCCCCCCCCCCCC/C=C/[C@@H](O)[C@@H](N)COP(=O)([O-])OCC[N+](C)(C)C [SPC]	3.59	100	agonists for HEDG-7	full agonists	robustly induced expression of the SRE reporter gene	–	1
CCCCC/C=C\C/C=C\C/C=C\C/C=C\CCCC(=O)NCCO [anadamide, anandamide]	–	–	do not act as HEDG-7 agonists	–	–	–	–
CCCCCCCCCCCCCCC[C@@H](O)[C@@H](N)COP(=O)(O)O [dihydro-S1P, dihydrosphingosine 1-phosphate]	–	–	do not act as HEDG-7 agonists	–	–	–	–
lysophosphatidylcholine [LPC]	–	–	–	–	failed to activate the SRE response	–	–
